Test results as given in the NIST ThermoML archive (doi:10.1021/je800110r).

Conditions: 293.15 K, Liquid, Vibrating tube method

CCCCCCCCCC [decane]
Conditions | mass density [kg/m3]
6746 kPa | 735.1
6773 kPa | 735
6794 kPa | 734.9
6816 kPa | 735
6848 kPa | 735
6876 kPa | 735
6897 kPa | 735
6922 kPa | 735.2
6945 kPa | 735.2
6978 kPa | 735.2
7001 kPa | 735
7028 kPa | 735.2
7050 kPa | 735.3
7069 kPa | 735.2
7097 kPa | 735.2
7122 kPa | 735.3
7137 kPa | 735.2
7168 kPa | 735.4
7187 kPa | 735.3
7209 kPa | 735.3
7232 kPa | 735.3
7257 kPa | 735.4
7276 kPa | 735.4
7295 kPa | 735.4
7318 kPa | 735.4
7338 kPa | 735.4
7360 kPa | 735.4
7390 kPa | 735.4
7414 kPa | 735.5
7438 kPa | 735.6
7460 kPa | 735.5
7485 kPa | 735.6
7500 kPa | 735.6
7514 kPa | 735.6
7532 kPa | 735.5
7544 kPa | 735.6
7559 kPa | 735.5
7573 kPa | 735.6
7586 kPa | 735.6
7603 kPa | 735.6
7621 kPa | 735.7
7636 kPa | 735.6
7649 kPa | 735.6
7665 kPa | 735.7
7685 kPa | 735.6
7701 kPa | 735.6
7716 kPa | 735.6
7732 kPa | 735.7
7748 kPa | 735.7
7769 kPa | 735.7
7789 kPa | 735.7
7803 kPa | 735.8
7824 kPa | 735.8
7837 kPa | 735.8
7854 kPa | 735.8
7873 kPa | 735.8
7889 kPa | 735.8
7910 kPa | 735.9
7929 kPa | 735.9
7943 kPa | 735.9
7963 kPa | 735.9
7982 kPa | 735.8
7997 kPa | 736
8013 kPa | 736.1
8030 kPa | 735.9
8048 kPa | 736
8065 kPa | 736
8080 kPa | 736
8102 kPa | 735.9
8114 kPa | 735.9
8137 kPa | 736.1
8160 kPa | 736
8178 kPa | 736.1
8196 kPa | 736
8213 kPa | 736.1
8234 kPa | 736.1
8249 kPa | 736.1
8265 kPa | 736.1
8289 kPa | 736.2
8309 kPa | 736.1
8324 kPa | 736.2
8342 kPa | 736.2
8357 kPa | 736.1
8373 kPa | 736.2
8396 kPa | 736.2
8414 kPa | 736.2
8435 kPa | 736.2
8456 kPa | 736.2
8469 kPa | 736.3
8490 kPa | 736.2
8512 kPa | 736.2
8530 kPa | 736.2
8552 kPa | 736.3
8577 kPa | 736.3
8591 kPa | 736.3
8615 kPa | 736.4
8638 kPa | 736.4
8657 kPa | 736.4
8679 kPa | 736.3
8696 kPa | 736.4
8715 kPa | 736.5
8735 kPa | 736.4
8752 kPa | 736.4
8777 kPa | 736.5
8801 kPa | 736.5
8818 kPa | 736.6
8844 kPa | 736.5
8867 kPa | 736.5
8885 kPa | 736.5
8905 kPa | 736.6
8925 kPa | 736.5
8946 kPa | 736.6
8967 kPa | 736.5
8985 kPa | 736.6
9006 kPa | 736.6
9033 kPa | 736.6
9054 kPa | 736.6
9077 kPa | 736.8
9098 kPa | 736.6
9119 kPa | 736.7
9137 kPa | 736.8
9159 kPa | 736.8
9178 kPa | 736.8
9206 kPa | 736.8
9235 kPa | 736.7
9251 kPa | 736.8
9280 kPa | 736.9
9302 kPa | 736.8
9324 kPa | 737
9350 kPa | 736.9
9370 kPa | 736.9
9397 kPa | 737
9426 kPa | 736.9
9446 kPa | 736.9
9469 kPa | 736.9
9492 kPa | 736.9
9512 kPa | 737
9533 kPa | 737
9562 kPa | 737.1
9590 kPa | 737
9615 kPa | 737.1
9642 kPa | 737.1
9666 kPa | 737.1
9687 kPa | 737.2
9718 kPa | 737.2
9743 kPa | 737.1
9767 kPa | 737.3
9799 kPa | 737.3
9821 kPa | 737.3
9853 kPa | 737.3
9871 kPa | 737.2
9897 kPa | 737.3
9920 kPa | 737.3
9953 kPa | 737.3
9986 kPa | 737.4
10009 kPa | 737.4
10042 kPa | 737.4
10073 kPa | 737.4
10096 kPa | 737.4
10134 kPa | 737.4
10165 kPa | 737.6
10193 kPa | 737.5
10218 kPa | 737.5
10248 kPa | 737.6
10278 kPa | 737.6
10298 kPa | 737.6
10313 kPa | 737.6
10327 kPa | 737.6
10344 kPa | 737.6
10358 kPa | 737.7
10372 kPa | 737.7
10389 kPa | 737.6
10406 kPa | 737.7
10428 kPa | 737.8
10443 kPa | 737.7
10461 kPa | 737.8
10481 kPa | 737.6
10498 kPa | 737.7
10516 kPa | 737.8
10533 kPa | 737.7
10550 kPa | 737.8
10570 kPa | 737.8
10587 kPa | 737.8
10602 kPa | 737.7
10625 kPa | 737.8
10645 kPa | 737.9
10661 kPa | 737.8
10679 kPa | 737.8
10697 kPa | 737.9
10715 kPa | 737.9
10735 kPa | 737.9
10753 kPa | 737.9
10768 kPa | 737.8
10787 kPa | 737.9
10803 kPa | 737.8
10824 kPa | 738
10842 kPa | 738
10860 kPa | 737.9
10879 kPa | 738.1
10892 kPa | 738
10913 kPa | 738
10929 kPa | 737.9
10950 kPa | 738.1
10966 kPa | 738
10985 kPa | 738.1
11001 kPa | 738.1
11023 kPa | 738.1
11045 kPa | 738.2
11061 kPa | 738.1
11081 kPa | 738.1
11094 kPa | 738.1
11111 kPa | 738.1
11131 kPa | 738.2
11156 kPa | 738.3
11170 kPa | 738.1
11193 kPa | 738.3
11210 kPa | 738.3
11235 kPa | 738.2
11255 kPa | 738.1
11281 kPa | 738.2
11304 kPa | 738.2
11324 kPa | 738.3
11348 kPa | 738.3
11366 kPa | 738.3
11387 kPa | 738.4
11408 kPa | 738.3
11425 kPa | 738.4
11443 kPa | 738.3
11460 kPa | 738.4
11479 kPa | 738.4
11492 kPa | 738.4
11511 kPa | 738.5
11524 kPa | 738.4
11543 kPa | 738.5
11560 kPa | 738.4
11574 kPa | 738.5
11596 kPa | 738.5
11613 kPa | 738.5
11628 kPa | 738.4
11645 kPa | 738.6
11664 kPa | 738.5
11684 kPa | 738.6
11701 kPa | 738.6
11721 kPa | 738.6
11740 kPa | 738.6
11758 kPa | 738.6
11775 kPa | 738.6
11793 kPa | 738.6
11810 kPa | 738.6
11828 kPa | 738.7
11845 kPa | 738.7
11861 kPa | 738.7
11888 kPa | 738.6
11904 kPa | 738.7
11927 kPa | 738.7
11950 kPa | 738.8
11966 kPa | 738.8
11987 kPa | 738.8
12010 kPa | 738.7
12028 kPa | 738.8
12049 kPa | 738.7
12070 kPa | 738.9
12089 kPa | 738.8
12110 kPa | 738.9
12131 kPa | 738.8
12152 kPa | 738.8
12170 kPa | 738.8
12187 kPa | 739
12201 kPa | 738.9
12219 kPa | 738.9
12238 kPa | 738.9
12263 kPa | 739.2
12285 kPa | 739
12301 kPa | 739
